# Assay results from patent US20070264679A1, “Method for analyzing the activity of lipoxygenase using a water-soluble substrate” (Chungnam National University Industry Collaboration …, priority 2006, published 2007).
# T1: Leukocyte 12-lipoxygenase (leukocyte LOX) (Sus scrofa, UniProt P16469)
# T1 construct: purchased Cayman Chemical Co. (Ann Arbor, Mich., USA)
# T1 sequence (P16469 1-663): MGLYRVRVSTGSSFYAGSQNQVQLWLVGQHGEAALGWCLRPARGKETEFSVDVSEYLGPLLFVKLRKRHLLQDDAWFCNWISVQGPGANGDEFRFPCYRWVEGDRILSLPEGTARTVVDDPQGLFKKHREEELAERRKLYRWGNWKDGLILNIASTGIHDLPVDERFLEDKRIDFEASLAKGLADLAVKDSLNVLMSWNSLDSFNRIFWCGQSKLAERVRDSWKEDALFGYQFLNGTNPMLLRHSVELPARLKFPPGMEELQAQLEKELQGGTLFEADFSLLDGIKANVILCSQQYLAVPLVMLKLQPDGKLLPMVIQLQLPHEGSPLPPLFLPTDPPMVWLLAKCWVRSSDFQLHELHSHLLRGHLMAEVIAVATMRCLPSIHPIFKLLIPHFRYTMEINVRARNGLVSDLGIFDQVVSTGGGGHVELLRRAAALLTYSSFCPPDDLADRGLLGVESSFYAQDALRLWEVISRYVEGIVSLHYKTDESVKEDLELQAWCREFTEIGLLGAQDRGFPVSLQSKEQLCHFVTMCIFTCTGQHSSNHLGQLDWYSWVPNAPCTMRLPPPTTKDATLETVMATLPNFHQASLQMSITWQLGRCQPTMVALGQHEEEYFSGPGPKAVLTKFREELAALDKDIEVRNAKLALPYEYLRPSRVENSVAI
# T2: soybean LOX-1 (Glycine max, UniProt P08170)
# T2 construct: purchased Sigma-Aldrich Corp (St. Louis, Mo., USA) lipoxidase Type I-B
# T2 sequence (P08170 1-839): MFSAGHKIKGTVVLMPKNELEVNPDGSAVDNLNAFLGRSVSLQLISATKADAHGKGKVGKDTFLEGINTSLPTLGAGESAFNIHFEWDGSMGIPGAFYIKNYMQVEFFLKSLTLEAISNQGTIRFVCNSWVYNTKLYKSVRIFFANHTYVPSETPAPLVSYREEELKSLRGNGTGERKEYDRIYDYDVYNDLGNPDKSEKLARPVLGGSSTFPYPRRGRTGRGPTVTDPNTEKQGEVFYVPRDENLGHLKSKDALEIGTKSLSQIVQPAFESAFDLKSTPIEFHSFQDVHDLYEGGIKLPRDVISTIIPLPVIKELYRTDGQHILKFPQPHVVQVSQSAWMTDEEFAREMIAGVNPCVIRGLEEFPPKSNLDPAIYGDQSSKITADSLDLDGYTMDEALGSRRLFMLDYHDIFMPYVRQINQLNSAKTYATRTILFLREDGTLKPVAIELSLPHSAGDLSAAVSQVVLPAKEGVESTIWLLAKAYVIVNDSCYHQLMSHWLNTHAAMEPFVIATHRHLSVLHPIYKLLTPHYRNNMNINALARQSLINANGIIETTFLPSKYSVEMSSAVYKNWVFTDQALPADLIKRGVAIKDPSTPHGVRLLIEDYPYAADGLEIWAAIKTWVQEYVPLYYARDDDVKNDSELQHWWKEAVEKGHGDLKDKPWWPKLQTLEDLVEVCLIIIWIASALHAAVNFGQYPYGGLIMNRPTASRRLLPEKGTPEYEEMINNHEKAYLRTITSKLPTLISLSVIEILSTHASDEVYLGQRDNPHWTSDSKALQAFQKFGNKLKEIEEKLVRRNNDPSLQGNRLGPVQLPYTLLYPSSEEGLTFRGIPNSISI
# T3: Reticulocyte LOX (Oryctolagus cuniculus, UniProt P12530)
# T3 construct: purchased Biomol Inc. (Plymouth Meeting, Pa., USA)
# T3 sequence (P12530 1-663): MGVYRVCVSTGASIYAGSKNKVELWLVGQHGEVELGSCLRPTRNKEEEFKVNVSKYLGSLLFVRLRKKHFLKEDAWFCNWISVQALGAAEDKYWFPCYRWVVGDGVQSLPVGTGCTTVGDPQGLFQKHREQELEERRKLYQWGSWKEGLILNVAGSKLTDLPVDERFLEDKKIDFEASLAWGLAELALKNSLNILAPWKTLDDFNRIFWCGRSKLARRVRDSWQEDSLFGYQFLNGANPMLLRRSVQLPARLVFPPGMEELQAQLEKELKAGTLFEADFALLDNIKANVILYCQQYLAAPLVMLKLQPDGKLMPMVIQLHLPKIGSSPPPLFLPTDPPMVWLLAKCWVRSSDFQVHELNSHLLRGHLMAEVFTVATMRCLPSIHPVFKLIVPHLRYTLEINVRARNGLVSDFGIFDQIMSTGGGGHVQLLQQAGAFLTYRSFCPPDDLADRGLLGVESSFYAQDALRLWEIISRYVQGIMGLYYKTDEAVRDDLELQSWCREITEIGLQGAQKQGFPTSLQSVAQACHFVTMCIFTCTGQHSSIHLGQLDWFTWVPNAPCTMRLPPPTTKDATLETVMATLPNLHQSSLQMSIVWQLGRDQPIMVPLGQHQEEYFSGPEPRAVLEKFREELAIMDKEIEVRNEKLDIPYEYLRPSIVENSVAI
# T4: Porcine leukocyte LOX (Sus scrofa, UniProt P16469)
# T4 construct: purchased Cayman Chemical Co. (Ann Arbor, Mich., USA)
# T4 sequence (P16469 1-663): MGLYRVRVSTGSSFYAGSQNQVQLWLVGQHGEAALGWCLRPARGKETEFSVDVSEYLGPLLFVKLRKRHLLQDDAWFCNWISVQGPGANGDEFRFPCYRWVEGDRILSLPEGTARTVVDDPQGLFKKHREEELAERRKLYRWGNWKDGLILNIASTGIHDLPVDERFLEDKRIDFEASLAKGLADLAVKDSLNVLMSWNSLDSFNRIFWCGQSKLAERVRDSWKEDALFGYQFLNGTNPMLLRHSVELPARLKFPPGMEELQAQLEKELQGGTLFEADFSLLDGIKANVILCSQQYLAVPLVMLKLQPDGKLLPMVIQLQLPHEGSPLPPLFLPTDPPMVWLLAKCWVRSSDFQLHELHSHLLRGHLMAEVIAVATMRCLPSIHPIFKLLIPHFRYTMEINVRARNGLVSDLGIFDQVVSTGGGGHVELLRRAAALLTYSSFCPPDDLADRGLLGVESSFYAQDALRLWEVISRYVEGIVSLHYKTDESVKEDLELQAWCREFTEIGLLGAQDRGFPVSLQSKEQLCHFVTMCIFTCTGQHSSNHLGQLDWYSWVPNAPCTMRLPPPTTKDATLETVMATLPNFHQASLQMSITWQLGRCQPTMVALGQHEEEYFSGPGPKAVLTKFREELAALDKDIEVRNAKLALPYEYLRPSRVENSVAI
# Experiments:
# [1] = biological target: T1, Leukocyte 12-lipoxygenase (leukocyte LOX); test: Kinetics of oxygenation of arachidonic acid or arachidonoyl-lysophospholipids by leukocyte LOX; format: biochemical, porcine; details: leukocyte LOX 1 unit/ml, 100 mM phosphate buffer pH 7.5, 5 mM EDTA, 0.03% Tween 20
# Method: (§1) Activities of various LOXs were monitored by measuring the increase in absorbance at 234 nm due to the formation of hydroperoxide (ε234=25,000 M^−1 cm^−1) at 25° C. as described before (Smith et al, J. Biol. Chem. 247 (1972) 1038-1047). One unit is defined as the amount of LOXs that can produce one nanomole of conjugated diene per min. The reaction mixture (500 μl) included reticulocyte LOX (2 units/ml) in 50 mM phosphate buffer (pH 7.4), porcine leukocyte LOX (1 unit/ml) in 100 mM phosphate buffer (pH 7.5) containing 5 mM EDTA and 0.03% Tween 20, or soybean LOX-1 (2.5 units/ml) in 50 mM borax buffer (pH 9.0) at 25° C. The reactions were started by including each substrate (100 μM) into the above reaction mixture.
# (§2) Reticulocyte LOX (2 units/ml), leukocyte LOX (1 units/ml) or soybean LOX-1 (2.5 units/ml) was incubated with each arachidonoyl derivative substrate of various concentrations as described above. The values of kinetic parameters were obtained according to Lineweaver Burke plot analyses as described before (Barroso et al, J. Chromatogr. B. Analyt. Technol. Biomed. Life. Sci. 814 (2005) 21-28).
# soybean LOX-1 [2] = biological target: T2, soybean LOX-1; test: Kinetics of oxygenation of arachidonic acid or arachidonoyl-lysophospholipids by soybean LOX-1; format: biochemical; details: soybean LOX-1 2.5 units/ml, 50 mM borax buffer pH 9.0; unit = one nanomole conjugated diene per min
# Method: as §1, §2
# Reticulocyte LOX = biological target: T3, Reticulocyte LOX; test: Kinetics of oxygenation of linoleoylated substrates by reticulocyte LOX; format: biochemical, Rabbit; details: reticulocyte LOX 8.2 units/ml, 50 mM phosphate buffer pH 7.4, 25° C.; for Km: substrate 3-100 μM
# Description: (§3) Data were expressed as means ±S.D. of results from at least three independent experiments.
# Porcine leukocyte LOX = biological target: T4, Porcine leukocyte LOX; test: Kinetics of oxygenation of linoleoylated substrates by leukocyte LOX; format: biochemical; details: porcine leukocyte LOX 1.5 units/ml, 100 mM phosphate buffer pH 7.5, 5 mM EDTA
# Description: as §3
# soybean LOX-1 [3] = biological target: T2, soybean LOX-1; test: Kinetics of oxygenation of docosahexaenoic acid derivatives by soybean LOX-1; format: biochemical; details: soybean LOX-1 2.5 units/ml, 50 mM borax buffer pH 9.0, 25° C.
# Method: Soybean LOX-1 (2.5 units/ml) was incubated with docosahexaenoyl-lysoPC, didocosahexaenoyl-lysoPC or docosahexaenoic acid of various concentrations in 500 μl of 50 mM borax buffer (pH 9.0) at 25° C. Values were expressed as means ±S.D. of results from at least three independent experiments.
# [4] = substrate: CCCCC/C=C\C/C=C\C/C=C\C/C=C\CCCC(=O)O; test: Kinetics of oxygenation of arachidonic acid or arachidonoyl-lysophospholipids by leukocyte LOX; format: biochemical, porcine; details: other: leukocyte LOX 1 unit/ml, 100 mM phosphate buffer pH 7.5, 5 mM EDTA, 0.03% Tween 20, 25° C.
# Method: as §1, §2
# [5] = substrate: CC/C=C\C/C=C\C/C=C\C/C=C\C/C=C\C/C=C\CCC(=O)O; test: Kinetics of oxygenation of docosahexaenoyl-lysoPC or docosahexaenoic acid by leukocyte LOX; format: biochemical; details: other: porcine leukocyte LOX 2 units/ml, 100 mM phosphate buffer pH 7.4, 5 mM EDTA, 0.03% Tween 20, 25° C.
# Method: Porcine leukocyte LOX (2 units/ml) was incubated with each substrate docosahexaenoyl-lysoPC or docosahexaenoic acid of various concentrations in 500 μl of 100 mM phosphate buffer (pH 7.4) containing 5 mM EDTA and 0.03% Tween 20 at 25° C.
molecule,measurement,setting,value
"CCCCC/C=C\C/C=C\C/C=C\C/C=C\CCCC(=O)O [Arachidonic acid, arachidonic acid]",Vm,[1],63.2 units/mg
same,Vm,soybean LOX-1 [2],92.2 units/μg
CCCCC/C=C\C/C=C\CCCCCCCC(=O)OC[C@H](COP(=O)(O)O)OC(=O)CCCCCCC/C=C\C/C=C\CCCCC [Dilinoleoyl-PA],Vm,Reticulocyte LOX,1029 ± 22 units/mg
same,Km,Reticulocyte LOX,90 ± 7.3 µM
CCCCC/C=C\C/C=C\CCCCCCCC(=O)OCC(O)COP(=O)(O)O (stereo not shown) [Linoleoyl-lysoPA],Vm,Porcine leukocyte LOX; 0.03% Tween 20,30.7 ± 0.78 units/mg
same,Km,"Porcine leukocyte LOX; substrate 3-100 μM, 0.03% Tween 20, 25° C.",35.5 ± 3.77 µM
same,Vm,Reticulocyte LOX,443 ± 9 units/mg
same,Km,Reticulocyte LOX,8.3 ± 0.6 µM
didocosahexaenenoyl phosphatidylcholine [Didocosahexaenoyl-PC],Km,soybean LOX-1 [3],1070 ± 184 µM
same,Vm,soybean LOX-1 [3],7.8 ± 0.3 units/μg
"Leukocyte 12-lipoxygenase (leukocyte LOX) (Sus scrofa) (protein, purchased Cayman Chemical Co. (Ann Arbor, Mich., USA)) MGLYRVRVSTGSSFYAGSQNQVQLWLVGQHGEAALGWCLRPARGKETEFSVDVSEYLGPLLFVKLRKRHLLQDDAWFCNWISVQGPGANGDEFRFPCYRWVEGDRILSLPEGTARTVVDDPQGLFKKHREEELAERRKLYRWGNWKDGLILNIASTGIHDLPVDERFLEDKRIDFEASLAKGLADLAVKDSLNVLMSWNSLDSFNRIFWCGQSKLAERVRDSWKEDALFGYQFLNGTNPMLLRHSVELPARLKFPPGMEELQAQLEKELQGGTLFEADFSLLDGIKANVILCSQQYLAVPLVMLKLQPDGKLLPMVIQLQLPHEGSPLPPLFLPTDPPMVWLLAKCWVRSSDFQLHELHSHLLRGHLMAEVIAVATMRCLPSIHPIFKLLIPHFRYTMEINVRARNGLVSDLGIFDQVVSTGGGGHVELLRRAAALLTYSSFCPPDDLADRGLLGVESSFYAQDALRLWEVISRYVEGIVSLHYKTDESVKEDLELQAWCREFTEIGLLGAQDRGFPVSLQSKEQLCHFVTMCIFTCTGQHSSNHLGQLDWYSWVPNAPCTMRLPPPTTKDATLETVMATLPNFHQASLQMSITWQLGRCQPTMVALGQHEEEYFSGPGPKAVLTKFREELAALDKDIEVRNAKLALPYEYLRPSRVENSVAI",Km,[4],7.7 µM
same,Vmax,[4],63.2 ± 11.9 units/mg
same,Vmax/Km,[4],8.2 ± 1.5 units/mg/μM
"Porcine leukocyte LOX (Sus scrofa) (protein, purchased Cayman Chemical Co. (Ann Arbor, Mich., USA)) MGLYRVRVSTGSSFYAGSQNQVQLWLVGQHGEAALGWCLRPARGKETEFSVDVSEYLGPLLFVKLRKRHLLQDDAWFCNWISVQGPGANGDEFRFPCYRWVEGDRILSLPEGTARTVVDDPQGLFKKHREEELAERRKLYRWGNWKDGLILNIASTGIHDLPVDERFLEDKRIDFEASLAKGLADLAVKDSLNVLMSWNSLDSFNRIFWCGQSKLAERVRDSWKEDALFGYQFLNGTNPMLLRHSVELPARLKFPPGMEELQAQLEKELQGGTLFEADFSLLDGIKANVILCSQQYLAVPLVMLKLQPDGKLLPMVIQLQLPHEGSPLPPLFLPTDPPMVWLLAKCWVRSSDFQLHELHSHLLRGHLMAEVIAVATMRCLPSIHPIFKLLIPHFRYTMEINVRARNGLVSDLGIFDQVVSTGGGGHVELLRRAAALLTYSSFCPPDDLADRGLLGVESSFYAQDALRLWEVISRYVEGIVSLHYKTDESVKEDLELQAWCREFTEIGLLGAQDRGFPVSLQSKEQLCHFVTMCIFTCTGQHSSNHLGQLDWYSWVPNAPCTMRLPPPTTKDATLETVMATLPNFHQASLQMSITWQLGRCQPTMVALGQHEEEYFSGPGPKAVLTKFREELAALDKDIEVRNAKLALPYEYLRPSRVENSVAI",Km,[5],17.6 ± 1.7 µM
same,Vmax,[5],35.9 µmol/min/mg
same,Vmax/Km,[5],2.1e+06 µL/min/mg
